Patent US20200339625A1, “NOVEL RADIOMETAL-BINDING COMPOUNDS FOR DIAGNOSIS OR TREATMENT OF PROSTATE SPECIFIC MEMBRANE ANTIGEN-EXPRESSING CANCER” (PROVINCIAL HEALTH SERVICES AUTHORITY, priority 2017, published 2020)

Tested on: mice bearing PSMA-expressing LNCAP cancer xenografts
Experiment: Biodistribution of 68Ga-labeled compounds
Assay type: in vivo
Description: Imaging and biodistribution experiments were performed using NODSCID 1L2RyKO male mice. Mice were anesthetized by inhalation with 2% isoflurane in oxygen, and implanted subcutaneously with 1×10^7 LNCaP cells behind left shoulder. Mice were imaged or used in biodistribution studies when the tumor grew up to reach 5-8 mm in diameter during 5-6 weeks.
For biodistribution studies, the mice were injected with the radiotracer as described above. At predetermined time points (1 or 3 h), the mice was anesthetized with 2% isoflurane inhalation, and euthanized by CO2 inhalation. Blood was withdrawn immediately from the heart, and the organs/tissues of interest were collected. The collected organs/tissues were weighed and counted using an automatic gamma counter. The uptake in each organ/tissue was normalized to the injected dose using a standard curve, and expressed as the percentage of the injected dose per gram of tissue (% ID/g).

O=C([O-])CN1CCN(CC(=O)[O-])CCN(CC(=O)NCCCC[C@H](NC(=O)CNC(=O)CCCc2ccc(I)cc2)C(=O)NC[C@H]2CC[C@H](C(=O)N[C@@H](Cc3ccc4ccccc4c3)C(=O)NCCCC[C@H](NC(=O)N[C@@H](CCC(=O)O)C(=O)O)C(=O)O)CC2)CCN(CC(=O)[O-])CC1.[68Ga+3] [^68Ga-HTK03024]
Adrenal glands uptake (1 h post-injection): 4.32 ± 0.25 % ID/g
Blood uptake (1 h post-injection): 27.0 ± 5.63 % ID/g
Bone uptake (1 h post-injection): 1.26 ± 0.08 % ID/g
Brain uptake (1 h post-injection): 0.31 ± 0.04 % ID/g
Fat uptake (1 h post-injection): 1.83 ± 0.44 % ID/g
Heart uptake (1 h post-injection): 6.53 ± 1.30 % ID/g
Intestine uptake (1 h post-injection): 1.86 ± 0.06 % ID/g
Kidneys uptake (1 h post-injection): 9.11 ± 1.06 % ID/g
Lacrimal uptake (1 h post-injection): 0.93 ± 0.36 % ID/g
Liver uptake (1 h post-injection): 3.71 ± 0.38 % ID/g
Lungs uptake (1 h post-injection): 9.51 ± 0.55 % ID/g
Muscle uptake (1 h post-injection): 1.10 ± 0.18 % ID/g
Pancreas uptake (1 h post-injection): 1.86 ± 0.04 % ID/g
Salivary uptake (1 h post-injection): 3.31 ± 0.79 % ID/g
Seminal uptake (1 h post-injection): 1.27 ± 0.18 % ID/g
Spleen uptake (1 h post-injection): 2.72 ± 0.69 % ID/g
Stomach uptake (1 h post-injection): 0.64 ± 0.05 % ID/g
Tail uptake (1 h post-injection): 7.58 ± 4.49 % ID/g
Testes uptake (1 h post-injection): 2.98 ± 0.30 % ID/g
Thyroid uptake (1 h post-injection): 4.39 ± 0.01 % ID/g
Tumor uptake (1 h post-injection): 7.34 ± 0.10 % ID/g
Tumor:Blood ratio (1 h post-injection): 0.28 ± 0.05
Tumor:Muscle ratio (1 h post-injection): 6.74 ± 1.00
Tumor:kidney ratio (1 h post-injection): 0.81 ± 0.11
Urine uptake (1 h post-injection): 1.48 ± 0.71 % ID/g
Adrenal glands uptake (3 h post-injection): 6.37 ± 1.54 % ID/g
Blood uptake (3 h post-injection): 23.9 ± 1.03 % ID/g
Bone uptake (3 h post-injection): 1.66 ± 0.39 % ID/g
Brain uptake (3 h post-injection): 0.34 ± 0.02 % ID/g
Fat uptake (3 h post-injection): 3.53 ± 1.48 % ID/g
Heart uptake (3 h post-injection): 5.56 ± 0.43 % ID/g
Intestine uptake (3 h post-injection): 1.66 ± 0.14 % ID/g
Kidneys uptake (3 h post-injection): 12.3 ± 0.86 % ID/g
Lacrimal uptake (3 h post-injection): 3.57 ± 1.56 % ID/g
Liver uptake (3 h post-injection): 3.86 ± 0.63 % ID/g
Lungs uptake (3 h post-injection): 11.6 ± 0.82 % ID/g
Muscle uptake (3 h post-injection): 1.55 ± 0.15 % ID/g
Pancreas uptake (3 h post-injection): 1.86 ± 0.20 % ID/g
Salivary uptake (3 h post-injection): 4.66 ± 0.58 % ID/g
Seminal uptake (3 h post-injection): 1.63 ± 0.13 % ID/g
Spleen uptake (3 h post-injection): 2.62 ± 0.93 % ID/g
Stomach uptake (3 h post-injection): 0.70 ± 0.10 % ID/g
Tail uptake (3 h post-injection): 4.03 ± 0.43 % ID/g
Testes uptake (3 h post-injection): 3.07 ± 0.20 % ID/g
Thyroid uptake (3 h post-injection): 4.19 ± 0.48 % ID/g
Tumor uptake (3 h post-injection): 15.0 ± 2.19 % ID/g
Tumor:Blood ratio (3 h post-injection): 0.63 ± 0.11
Tumor:Muscle ratio (3 h post-injection): 9.69 ± 1.51
Tumor:kidney ratio (3 h post-injection): 1.21 ± 0.10
Urine uptake (3 h post-injection): 3.68 ± 1.74 % ID/g

Nc1ccc(CCCC(=O)NCC(=O)N[C@@H](CCCCNC(=O)CN2CCN(CC(=O)[O-])CCN(CC(=O)[O-])CCN(CC(=O)[O-])CC2)C(=O)NC[C@H]2CC[C@H](C(=O)N[C@@H](Cc3ccc4ccccc4c3)C(=O)NCCCC[C@H](NC(=O)N[C@@H](CCC(=O)O)C(=O)O)C(=O)O)CC2)cc1.[68Ga+3] [^68Ga-HTK03087]
Adrenal glands uptake (1 h post-injection): 2.95 ± 0.92 % ID/g
Blood uptake (1 h post-injection): 1.74 ± 0.11 % ID/g
Bone uptake (1 h post-injection): 0.16 ± 0.02 % ID/g
Brain uptake (1 h post-injection): 0.04 ± 0.01 % ID/g
Fat uptake (1 h post-injection): 0.77 ± 0.14 % ID/g
Heart uptake (1 h post-injection): 0.52 ± 0.07 % ID/g
Intestine uptake (1 h post-injection): 0.32 ± 0.06 % ID/g
Kidneys uptake (1 h post-injection): 102 ± 8.91 % ID/g
Lacrimal uptake (1 h post-injection): 0.06 ± 0.05 % ID/g
Liver uptake (1 h post-injection): 0.44 ± 0.06 % ID/g
Lungs uptake (1 h post-injection): 1.75 ± 0.09 % ID/g
Muscle uptake (1 h post-injection): 0.31 ± 0.05 % ID/g
Pancreas uptake (1 h post-injection): 0.45 ± 0.02 % ID/g
Salivary uptake (1 h post-injection): 1.76 ± 0.16 % ID/g
Seminal uptake (1 h post-injection): 2.40 ± 2.83 % ID/g
Spleen uptake (1 h post-injection): 2.42 ± 0.79 % ID/g
Stomach uptake (1 h post-injection): 0.14 ± 0.05 % ID/g
Tail uptake (1 h post-injection): 0.91 ± 0.12 % ID/g
Testes uptake (1 h post-injection): 0.48 ± 0.06 % ID/g
Thyroid uptake (1 h post-injection): 0.74 ± 0.04 % ID/g
Tumor uptake (1 h post-injection): 20.7 ± 3.79 % ID/g
Tumor:Blood ratio (1 h post-injection): 11.9 ± 1.92
Tumor:Muscle ratio (1 h post-injection): 66.6 ± 9.63
Tumor:kidney ratio (1 h post-injection): 0.20 ± 0.02
Urine uptake (1 h post-injection): 196 ± 50.9 % ID/g
Adrenal glands uptake (3 h post-injection): 0.90 ± 0.36 % ID/g
Blood uptake (3 h post-injection): 0.52 ± 0.08 % ID/g
Bone uptake (3 h post-injection): 0.03 ± 0.03 % ID/g
Brain uptake (3 h post-injection): 0.01 ± 0.00 % ID/g
Fat uptake (3 h post-injection): 0.40 ± 0.11 % ID/g
Heart uptake (3 h post-injection): 0.16 ± 0.03 % ID/g
Intestine uptake (3 h post-injection): 0.23 ± 0.10 % ID/g
Kidneys uptake (3 h post-injection): 56.1 ± 20.3 % ID/g
Lacrimal uptake (3 h post-injection): 0.00 ± 0.00 % ID/g
Liver uptake (3 h post-injection): 0.31 ± 0.19 % ID/g
Lungs uptake (3 h post-injection): 0.53 ± 0.12 % ID/g
Muscle uptake (3 h post-injection): 0.08 ± 0.02 % ID/g
Pancreas uptake (3 h post-injection): 0.14 ± 0.03 % ID/g
Salivary uptake (3 h post-injection): 0.47 ± 0.07 % ID/g
Seminal uptake (3 h post-injection): 1.44 ± 3.04 % ID/g
Spleen uptake (3 h post-injection): 0.80 ± 0.31 % ID/g
Stomach uptake (3 h post-injection): 0.07 ± 0.04 % ID/g
Tail uptake (3 h post-injection): 0.27 ± 0.05 % ID/g
Testes uptake (3 h post-injection): 0.17 ± 0.05 % ID/g
Thyroid uptake (3 h post-injection): 0.24 ± 0.05 % ID/g
Tumor uptake (3 h post-injection): 20.4 ± 5.92 % ID/g
Tumor:Blood ratio (3 h post-injection): 39.2 ± 8.42
Tumor:Muscle ratio (3 h post-injection): 254 ± 88.9
Tumor:kidney ratio (3 h post-injection): 0.40 ± 0.16
Urine uptake (3 h post-injection): 339 ± 355 % ID/g
